Consider 21 molecules from patent US11236084B2, “Substituted azaindoline derivatives as NIK inhibitors” (Janssen Pharmaceutica NV, priority 2017, dated 2022).

Each structure is given as a SMILES string. Read-outs that look alike come from different tables or passages of the source.

The target of series [1] is T1, recombinant human NF-kappaB-inducing kinase (NIK/MAP3K14) (Homo sapiens, UniProt Q99558). Put plainly: Biological Assay B: inhibition of auto-phosphorylation of recombinant human NIK/MAP3K14 (AlphaScreen), performed at 2 locations. In kind it is biochemical. Particulars: averaged values. The method, boiled down: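 Run at two separate sites: 1 h, 25° C. reactions containing 0.2 nM GST-NIK, 25 microM ATP and compound (1% DMSO) in Tris pH 7.5/MgCl2 buffer. Phosphorylation detected via anti-phospho-IKK Ser176/180 antibody with AlphaScreen beads; IC50 fitted to % inhibition.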

Series [2] has as its system P-IKKα levels in L363 (NIK translocated multiple myeloma) cells. Put plainly: Biological Assay C: effect of compounds on P-IKKα levels in L363 (NIK translocated multiple myeloma) cells, performed at 2 locations. Conditions: averaged values. The format is cell-based, human. The method in brief: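 Human L363 cells were primed 24 h with recombinant human BAFF, then treated 2 h with compound (8-point 1:3 dilutions, 1% DMSO) at 37 °C. IC50 came from a sigmoidal fit of % inhibition versus log concentration, determined at two sites.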

Series [3] deals with T1, recombinant human NF-kappaB-inducing kinase (NIK/MAP3K14). Put plainly: Biological Assay A: inhibition of recombinant human NF-kappaB-inducing kinase (NIK/MAP3K14) activity (MBP phosphorylation, Mesoscale). Particulars: MSD MBP; averaged over all measurements on all batches; read-out: Assay A Biochemical (MSD MBP) IC50. Here is the method: Pharmacological Part Biological Assay A Inhibition of Recombinant Human NF-kappaB-Inducing Kinase (NIK/MAP3K14) Activity
Assay buffer was 50 mM Tris pH 7.5 containing 1 mM EGTA (ethylene glycol tetraacetic acid), 1 mM DTT (dithiothreitol), 0.1 mM Na3VO4, 5 mM MgCl2, 0.01% Tween® 20. Assays were carried out in 384 well Mesoscale high binding plates which had been coated with myelin basic protein (MBP) and blocked with bovine serum albumin to prevent non-specific protein binding. All compounds tested were dissolved in dimethyl sulfoxide (DMSO) and further dilutions were made in assay buffer. Final DMSO concentration was 1% (v/v) in assays. Incubations consisted of compound (1% DMSO in control and blank wells), 25 μM […] (ATP), and 10 nM NIK/MAP3K14 substituting enzyme with buffer in the blank wells. Incubations were carried out for 1 h at 25° C. and were followed by washing and sequential incubation with rabbit anti-phospho-MBP and anti-rabbit Ig Sulfotag antibody before reading bound Sulfotag on a Mesoscale Discovery. Signal obtained in the wells containing blank samples was subtracted from all other wells and […] were determined by fitting a sigmoidal curve to % inhibition of control versus Log10 compound concentration.
Data for the compounds of the invention in the above assays are provided in Table A (the values in Table are averaged values over all measurements on all batches of a compound; values as IC50 (nM)). (‘n.c.’ means not calculated: ‘Co.’ means compound)

Setting [4] is: location 1, NIK auto-phosphorylation, AlphaScreen, read-out: Assay B location 1 IC50.
The mark [5] stands for this setting: location 2, AlphaScreen auto-phosphorylation, read-out: Assay B location 2 IC50.
Setting [6] is: Homo sapiens, L-363, location 2, L363 cells, P-IKKα levels, read-out: Assay C location 2 IC50.
Setting [7] is: location 1, AlphaScreen auto-phosphorylation, read-out: Assay B location 1 IC50.

T1 sequence (Q99558 whole entry): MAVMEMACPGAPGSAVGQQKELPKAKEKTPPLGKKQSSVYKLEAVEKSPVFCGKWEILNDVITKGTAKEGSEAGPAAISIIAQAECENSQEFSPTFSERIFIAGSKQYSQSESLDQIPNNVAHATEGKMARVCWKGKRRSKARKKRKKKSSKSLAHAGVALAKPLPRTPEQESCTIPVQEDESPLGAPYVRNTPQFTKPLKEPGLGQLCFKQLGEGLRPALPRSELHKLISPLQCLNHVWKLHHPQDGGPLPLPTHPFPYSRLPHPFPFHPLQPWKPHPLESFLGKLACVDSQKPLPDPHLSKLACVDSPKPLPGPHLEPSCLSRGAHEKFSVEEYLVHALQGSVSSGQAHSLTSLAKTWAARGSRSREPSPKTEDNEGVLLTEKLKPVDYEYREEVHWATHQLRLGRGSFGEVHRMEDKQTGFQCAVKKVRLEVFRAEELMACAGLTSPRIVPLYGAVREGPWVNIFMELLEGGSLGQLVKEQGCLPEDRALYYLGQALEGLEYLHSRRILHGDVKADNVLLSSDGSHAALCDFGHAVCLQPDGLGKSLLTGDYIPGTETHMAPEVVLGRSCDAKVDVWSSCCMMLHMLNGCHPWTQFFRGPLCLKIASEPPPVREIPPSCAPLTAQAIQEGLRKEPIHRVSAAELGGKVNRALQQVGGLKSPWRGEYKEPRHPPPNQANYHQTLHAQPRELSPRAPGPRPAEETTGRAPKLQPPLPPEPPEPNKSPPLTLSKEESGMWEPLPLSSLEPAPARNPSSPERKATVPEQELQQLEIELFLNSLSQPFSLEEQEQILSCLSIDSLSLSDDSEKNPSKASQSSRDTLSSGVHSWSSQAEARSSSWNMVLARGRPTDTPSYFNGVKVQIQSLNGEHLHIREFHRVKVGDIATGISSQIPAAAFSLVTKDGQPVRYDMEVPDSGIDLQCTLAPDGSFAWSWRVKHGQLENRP

The IC50 is the concentration needed to halve the response being measured. One may read the melting point as the temperature of the solid-liquid transition. As for `COc1cc(N2CCC(O)CC2)c(Cl)cc1Nc1nccc(-c2cnc3c(c2)C(C)(CO)CN3)n1` (single isomer, unassigned) [Compound 16], the melting point was more than 260 °C. For the same molecule, the IC50 in series [1] (setting [4]) worked out at 3.2 nM. Moreover, in series [2] (location 1, P-IKKα levels in L363 cells, 2 hr treatment, read-out: Assay C location 1 IC50), the IC50 came to 19.1 nM.
As for `COc1cc(N2CC3(CCOCC3)C2)c(Cl)cc1Nc1ncc(Cl)c(-c2cnc3c(c2)C(C)(CO)CN3)n1` (single isomer, unassigned) [Compound 347], the melting point was more than 250 °C. Besides, the IC50 in series [1] (setting [4]) was found to be 144 nM.
The like results for `COc1cc(C(=O)NC2CCOCC2)ccc1Nc1ncc(F)c(-c2cnc3c(c2)C(C)(CO)CN3)n1` (single isomer, unassigned) [Compound 349] were, in that order, more than 250 °C and 3.6 nM.
For the molecule `COc1cc(C(=O)NC2CCOCC2)ccc1Nc1ncc(Cl)c(-c2cnc3c(c2)C(C)(CO)CN3)n1` (single isomer, unassigned) [Compound 350], the melting point is more than 250 °C. Besides, the IC50 in series [1] (setting [4]) turned out to be 295 nM.
For the molecule `Cc1cc(C(=O)NC2CN(C)C2)ccc1Nc1nccc(-c2cnc3c(c2)C(C)(CO)CN3)n1` (centres unmarked) [Compound 89], the results for the IC50 in series [3], in series [1] (setting [5]) and in series [2] (setting [6]) were 63.1 nM, 20.4 nM and 5010 nM, respectively.
Take `COc1cc(Nc2nccc(-c3cnc4c(c3)C(C)(CO)CN4)n2)c(C)c(C(=O)NC2CN(C)C2)c1` (centres unmarked) [Compound 90]: the IC50 in series [3] stood at 14.8 nM; in series [1] (setting [5]), 5.1 nM; in series [2] (setting [6]), 759 nM.
Take `Cc1cc(C(=O)N2CCC(O)CC2)ccc1Nc1nccc(-c2cnc3c(c2)C(C)(CO)CN3)n1` (centres unmarked) [Compound 109]: the IC50 in series [3] was found to be 10.2 nM; in series [1] (setting [5]), 5.5 nM; in series [2] (setting [6]) it was 309 nM.
Taken in the same sequence, the figures for `Cc1cc(C(=O)N2CCOCC2)ccc1Nc1nccc(-c2cnc3c(c2)C(C)(CO)CN3)n1` (centres unmarked) [Compound 120] were 9.3 nM, 7.8 nM and 427 nM.
As to `COC1CCN(C(=O)c2ccc(Nc3nccc(-c4cnc5c(c4)C(C)(CO)CN5)n3)c(C)c2)CC1` (centres unmarked) [Compound 121], the IC50 amounted to 11.2 nM in series [3]; 7.2 nM in series [1] (setting [5]); 380 nM in series [2] (location 2, L363 cells, P-IKKα levels, read-out: Assay C location 2 IC50).
As to `Cc1cc(C(=O)NC2CCOCC2)ccc1Nc1nccc(-c2cnc3c(c2)C(C)(CCC#N)CN3)n1` (centres unmarked) [Compound 125], the IC50 in series [3] turned out to be 12.3 nM; in series [1] (setting [7]), 31.6 nM; in series [2] (setting [6]) it was 1230 nM.
Turning to `Cc1cc(C(=O)NC2CCOCC2)ccc1Nc1nccc(-c2cnc3c(c2)C(C)(CC#N)CN3)n1` (centres unmarked) [Compound 126], the IC50 in series [3] came out at 8.7 nM; in series [1] (setting [7]) it was 14.8 nM; in series [2] (setting [6]), 537 nM.
Take `COc1cc(C(=O)NC2CCN(C)CC2)ccc1Nc1nccc(-c2cnc3c(c2)C(C)(CO)CN3)n1` (centres unmarked) [Compound 130]: the IC50 in series [3] is 10.2 nM; in series [1] (setting [5]), 10.7 nM; in series [2] (setting [6]), 661 nM.
As for `COc1cc(C(=O)N2CCC(OC)CC2)ccc1Nc1nccc(-c2cnc3c(c2)C(C)(CO)CN3)n1` (centres unmarked) [Compound 131], the IC50 in series [3] was 4.5 nM; in series [1] (setting [5]) it was 0.9 nM; in series [2] (setting [6]) it was 70.8 nM.
As for `COc1cc(C(=O)N2CCS(=O)(=O)CC2)ccc1Nc1nccc(-c2cnc3c(c2)C(C)(CO)CN3)n1` (centres unmarked) [Compound 132], the IC50 in series [3] was determined as 3.3 nM; in series [1] (setting [7]), 10 nM; in series [1] (setting [5]), 3.1 nM; in series [2] (setting [6]), 513 nM.
In the case of `Cc1cc(C(=O)N2CCS(=O)(=O)CC2)ccc1Nc1nccc(-c2cnc3c(c2)C(C)(CO)CN3)n1` (centres unmarked) [Compound 134], the results for the IC50 in series [3], in series [1] (setting [5]) and in series [2] (setting [6]) were 3.9 nM, 4.4 nM and 776 nM, respectively.
For `COc1cc(N2CC3(CCOCC3)C2)c(Cl)cc1Nc1ncc(F)c(-c2cnc3c(c2)C(C)(CO)CN3)n1` (centres unmarked) [Compound 345], the melting point is more than 250 °C. In addition, the IC50 in series [1] (setting [4]) is 19.1 nM.
In the case of `COc1ccc(Cl)cc1Nc1nccc(-c2cnc3c(c2)C(C)(C)CN3)n1` [Compound 353], the melting point was determined as 210 °C. Also, the IC50 in series [1] (setting [4]) turned out to be 72.4 nM.
With `COc1ccc(Cl)cc1Nc1nccc(-c2cnc3c(c2)C(C)(CO)CN3)n1` (centres unmarked) [Compound 354], the melting point worked out at 236 °C. The IC50 in series [1] (setting [4]) came out at 3 nM.
As for `Cc1ccc(Cl)cc1Nc1nccc(-c2cnc3c(c2)C(C)(CO)CN3)n1` (centres unmarked) [Compound 355], the melting point turned out to be 221 °C. Further, the IC50 in series [1] (setting [4]) came out at 2.5 nM.
For the molecule `COCCOc1ccc(Cl)cc1Nc1nccc(-c2cnc3c(c2)C(C)(CO)CN3)n1` (centres unmarked) [Compound 356], the melting point came out at 208 °C. For the same molecule, in series [1] (setting [4]), the IC50 was 24.6 nM.
Take `CC(=O)NCc1cccc(Nc2nccc(-c3cnc4c(c3)C(C)(CO)CN4)n2)c1C` (centres unmarked) [Compound 360]: the 50% inhibitory concentration (IC50) in series [3] is 77.6 nM; in series [1] (setting [5]), 33.9 nM; in series [2] (setting [6]), 912 nM.
